Results from patent publication US20250171457A1, “NITROGEN-CONTAINING HETEROCYCLIC COMPOUND HAVING NRF2 ACTIVATION EFFECT” (CHUGAI SEIYAKU KABUSHIKI KAISHA, priority 2022, published 2025).

What follows are compounds tested on Nrf2 transcriptional activity (pARE-Luc reporter) in HepG2 cells (assay: In vitro Nrf2 transcriptional activity measurement by ARE-dependent reporter assay in HepG2 cell). Conditions: Homo sapiens; HepG2 cells transfected with pARE-Luc, 4 hours at 37° C.; luciferase activity of Example 1-54 or Example 17-23 at 3.75 μM defined as 100%.
Type: cell-based, human
Summary of the method: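 HepG2 cells transfected with pGL4.37 (pARE-Luc), replated onto compound and incubated 4 h at 37° C; luciferase read by Bright-Glo luminescence. Response normalized to 100% set by a reference compound at 3.75 μM; EC50 from dose-response curve.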

Compared with `Cn1cc(-c2cc(Cl)c(C(=O)N3COc4c(cccc4-c4cc(N5CCOCC5)c(C(=O)O)cc4F)C3)c(Cl)c2)cn1` [Compound 13-19, 4-[3-[2,6-Dichloro-4-(1-methylpyrazol-4-yl)benzoyl]-2,4-dihydro-1,3-benzoxazin-8-yl]-5-fluoro-2-morpholin-4-ylbenzoic acid], `Cn1cc(-c2cc(Cl)c(C(=O)N3COc4c(cccc4-c4cc(N5CC6COCC6C5)c(C(=O)O)cc4F)C3)c(Cl)c2)cn1` (centres unmarked) [Compound 14-2, 2-(1,3,3a,4,6,6a-Hexahydrofuro[3,4-c]pyrrol-5-yl)-4-[3-[2,6-dichloro-4-(1-methylpyrazol-4-yl)benzoyl]-2,4-dihydro-1,3-benzoxazin-8-yl]-5-fluorobenzoic acid] is 4.1-fold higher in EC50: 1.6 nM for the first, 6.5 nM for the second.

First: COC1(C)CN(C2CN(c3cc(Cl)c(C(=O)N4COc5c(cccc5-c5cc(N6C7CCC6COC7)c(C(=O)O)cc5F)C4)c(Cl)c3)C2)C1 [Compound 11-2, 4-[3-[2,6-Dichloro-4-[3-(3-methoxy-3-methylazetidin-1-yl)azetidin-1-yl]benzoyl]-2,4-dihydro-1,3-benzoxazin-8-yl]-5-fluoro-2-(3-oxa-8-azabicyclo [3.2.1]octan-8-yl)benzoic acid]
Second: CN1C2CC1CN(c1cc(Cl)c(C(=O)N3COc4c(cccc4-c4cc(N5C6CCC5COC6)c(C(=O)O)cc4F)C3)c(Cl)c1)C2 [Compound 20-4, 4-[3-[2,6-Dichloro-4-(6-methyl-3,6-diazabicyclo[3.1.1]heptan-3-yl)benzoyl]-2,4-dihydro-1,3-benzoxazin-8-yl]-5-fluoro-2-(3-oxa-8-azabicyclo[3.2.1]octan-8-yl)benzoic acid]
The EC50 of the first is 36-fold lower: 4.2 nM for the first, 150 nM for the second.

Going from `CC[C@@H](c1cccc2c1C(=O)NN(C(=O)c1c(Cl)cc(-c3cnn(C)c3)cc1Cl)C2)[C@H](C)C(=O)O` [Compound 17-1, (2S,3R)-3-[2-[2,6-Dichloro-4-(1-methylpyrazol-4-yl)benzoyl]-4-oxo-1,3-dihydrophthalazin-5-yl]-2-methylpentanoic acid] to `COc1cc(C(=O)N2COc3c(cccc3-c3cc(N4CCOCC4)c(C(=O)O)cc3F)C2)c(Cl)cc1-c1cnn(C)c1` [Compound 2-6, 4-[3-[2-Chloro-5-methoxy-4-(1-methylpyrazol-4-yl)benzoyl]-2,4-dihydro-1,3-benzoxazin-8-yl]-5-fluoro-2-morpholin-4-ylbenzoic acid], the EC50 rises from 2.2 nM to 6 nM (2.7-fold).

`COCC1(OC)CN(c2cc(Cl)c(C(=O)N3COc4c(cccc4-c4cc(N5C6CCC5COC6)c(C(=O)O)cc4F)C3)c(Cl)c2)C1` [Compound 6-1, 4-[3-[2,6-Dichloro-4-[3-methoxy-3-(methoxymethyl)azetidin-1-yl]benzoyl]-2,4-dihydro-1,3-benzoxazin-8-yl]-5-fluoro-2-(3-oxa-8-azabicyclo[3.2.1]octan-8-yl)benzoic acid] and `O=C(O)c1cc(F)c(-c2cccc3c2OCN(C(=O)c2c(Cl)cc(N4CC5(CC5)C4)cc2Cl)C3)cc1N1C2CCC1COC2` [Compound 1-13, 4-[3-[4-(5-Azaspiro[2.3]hexan-5-yl)-2,6-dichlorobenzoyl]-2,4-dihydro-1,3-benzoxazin-8-yl]-5-fluoro-2-(3-oxa-8-azabicyclo[3.2.1]octan-8-yl)benzoic acid] are within 1.5-fold of each other in EC50: 2.1 nM for the first, 2.4 nM for the second.

`Cn1nnc2c(N3CC4(C3)OCC(C)(C)CO4)cc(Cl)c(C(=O)N3COc4c(cccc4-c4cc(N5C6CCC5COC6)c(C(=O)O)cc4F)C3)c21` [Compound 19-12, 4-[3-[5-Chloro-7-(7,7-dimethyl-5,9-dioxa-2-azaspiro[3.5]nonan-2-yl)-3-methylbenzotriazole-4-carbonyl]-2,4-dihydro-1,3-benzoxazin-8-yl]-5-fluoro-2-(3-oxa-8-azabicyclo[3.2.1]octan-8-yl)benzoic acid] and `COC1CC2(C1)CN(c1cc(Cl)c(C(=O)N3COc4c(cccc4-c4cc(N5C6CCC5COC6)c(C(=O)O)cc4F)C3)c3c1nc(C)n3C)C2` [Compound 19-15, 4-[3-[5-Chloro-7-(6-methoxy-2-azaspiro[3.3]heptan-2-yl)-2,3-dimethylbenzimidazole-4-carbonyl]-2,4-dihydro-1,3-benzoxazin-8-yl]-5-fluoro-2-(3-oxa-8-azabicyclo[3.2.1]octan-8-yl)benzoic acid] are within 1.5-fold of each other in EC50: 2.5 nM for the first, 2.3 nM for the second.

`COc1cc(Cl)c(C(=O)N2COc3c(cccc3-c3cc(N4CCOCC4)c(C(=O)O)cc3F)C2)cc1C1CC1` [Compound 18-2, 4-[3-(2-Chloro-5-cyclopropyl-4-methoxybenzoyl)-2,4-dihydro-1,3-benzoxazin-8-yl]-5-fluoro-2-morpholin-4-ylbenzoic acid] and `COC1CN(c2cc(Cl)c(C(=O)N3COc4c(cccc4-c4cc(N5C6CCC5COC6)c(C(=O)O)cc4F)C3)cc2C)C1` [Compound 1-71, 4-[3-[2-Chloro-4-(3-methoxyazetidin-1-yl)-5-methylbenzoyl]-2,4-dihydro-1,3-benzoxazin-8-yl]-5-fluoro-2-(3-oxa-8-azabicyclo[3.2.1]octan-8-yl)benzoic acid] are within 1.5-fold of each other in EC50: 5.8 nM for the first, 6.1 nM for the second.

`O=C(O)c1cc(F)c(-c2cccc3c2OCN(C(=O)c2c(Cl)cc(N4CCNCC4)cc2Cl)C3)cc1N1C2CCC1COC2` [Compound 20-8, 4-[3-(2,6-Dichloro-4-piperazin-1-ylbenzoyl)-2,4-dihydro-1,3-benzoxazin-8-yl]-5-fluoro-2-(3-oxa-8-azabicyclo[3.2.1]octan-8-yl)benzoic acid] and `O=C(O)c1cc(F)c(-c2cccc3c2OCN(C(=O)c2c(Cl)cc(N4CCNC5(CC5)C4)cc2Cl)C3)cc1N1C2CCC1COC2` [Compound 4-11, 4-[3-[2,6-Dichloro-4-(4,7-diazaspiro[2.5]octan-7-yl)benzoyl]-2,4-dihydro-1,3-benzoxazin-8-yl]-5-fluoro-2-(3-oxa-8-azabicyclo[3.2.1]octan-8-yl)benzoic acid] are within 1.5-fold of each other in EC50: 18 nM for the first, 25 nM for the second.

`C[C@H]1COCCN1C1CN(c2cc(Cl)c(C(=O)N3COc4c(cccc4-c4cc(N5C6CCC5COC6)c(C(=O)O)cc4F)C3)c(Cl)c2)C1` [Compound 5-14, 4-[3-[2,6-Dichloro-4-[3-[(3S)-3-methylmorpholin-4-yl]azetidin-1-yl]benzoyl]-2,4-dihydro-1,3-benzoxazin-8-yl]-5-fluoro-2-(3-oxa-8-azabicyclo[3.2.1]octan-8-yl)benzoic acid] and `C[C@@H]1COCCN1C1CN(c2cc(Cl)c(C(=O)N3COc4c(cccc4-c4cc(N5C6CCC5COC6)c(C(=O)O)cc4F)C3)c(Cl)c2)C1` [Compound 5-15, 4-[3-[2,6-Dichloro-4-[3-[(3R)-3-methylmorpholin-4-yl]azetidin-1-yl]benzoyl]-2,4-dihydro-1,3-benzoxazin-8-yl]-5-fluoro-2-(3-oxa-8-azabicyclo[3.2.1]octan-8-yl)benzoic acid] are within 1.5-fold of each other in EC50: 2.9 nM for the first, 3.1 nM for the second.

Compared with `CO[C@H]1C[C@]2(CN(c3cc(Cl)c(C(=O)N4COc5c(cccc5-c5cc(N6C7CCC6COC7)c(C(=O)O)cc5F)C4)c(Cl)c3)[C@@H]2C)C1` [Compound 1-26, 4-[3-[2,6-Dichloro-4-[(1R,4s,6S)-6-methoxy-1-methyl-2-azaspiro[3.3]heptan-2-yl]benzoyl]-2,4-dihydro-1,3-benzoxazin-8-yl]-5-fluoro-2-(3-oxa-8-azabicyclo[3.2.1]octan-8-yl)benzoic acid], `N#CC1CC2(C1)CN(c1cc(Cl)c(C(=O)N3COc4c(cccc4-c4cc(N5C6CCC5COC6)c(C(=O)O)cc4F)C3)c(Cl)c1)C2` [Compound 1-47, 4-[3-[2,6-Dichloro-4-(6-cyano-2-azaspiro[3.3]heptan-2-yl)benzoyl]-2,4-dihydro-1,3-benzoxazin-8-yl]-5-fluoro-2-(3-oxa-8-azabicyclo[3.2.1]octan-8-yl)benzoic acid] is 8.6-fold higher in EC50: 1.4 nM for the first, 12 nM for the second.

Going from `Cn1nc2cncc(-c3cc(Cl)c(C(=O)N4COc5c(cccc5-c5cc(N6C7CCC6COC7)c(C(=O)O)cc5F)C4)c(Cl)c3)c2n1` [Compound 3-10, 4-[3-[2,6-Dichloro-4-(2-methyltriazolo[4,5-c]pyridin-7-yl)benzoyl]-2,4-dihydro-1,3-benzoxazin-8-yl]-5-fluoro-2-(3-oxa-8-azabicyclo[3.2.1]octan-8-yl)benzoic acid] to `O=C(O)c1cc(F)c(-c2cccc3c2OCN(C(=O)c2c(Cl)cc(N4C5CCC4COC5)cc2Cl)C3)cc1N1C2CCC1COC2` [Compound 1-41, 4-[3-[2,6-Dichloro-4-(3-oxa-8-azabicyclo[3.2.1]octan-8-yl)benzoyl]-2,4-dihydro-1,3-benzoxazin-8-yl]-5-fluoro-2-(3-oxa-8-azabicyclo[3.2.1]octan-8-yl)benzoic acid], the EC50 falls from 4.7 nM to 2 nM (2.4-fold). The second is the more potent here.

Going from `COCCN1CCN(c2cc(Cl)c(C(=O)N3COc4c(cccc4-c4cc(N5CCOCC5C#N)c(C(=O)O)cc4F)C3)c(Cl)c2)CC1` (racemic) [Compound 20-10, rac-2-(3-Cyanomorpholin-4-yl)-4-[3-[2,6-dichloro-4-[4-(2-methoxyethyl)piperazin-1-yl]benzoyl]-2,4-dihydro-1,3-benzoxazin-8-yl]-5-fluorobenzoic acid] to `COCCN1CC2CCC(C1)N2c1cc(Cl)c(C(=O)N2COc3c(cccc3-c3cc(N4C5CCC4COC5)c(C(=O)O)cc3F)C2)c(Cl)c1` [Compound 7-12, 4-[3-[2,6-Dichloro-4-[3-(2-methoxyethyl)-3,8-diazabicyclo[3.2.1]octan-8-yl]benzoyl]-2,4-dihydro-1,3-benzoxazin-8-yl]-5-fluoro-2-(3-oxa-8-azabicyclo[3.2.1]octan-8-yl)benzoic acid], the EC50 falls from 25 nM to 2.3 nM (11-fold). The second is the more potent here.

Work on `O=C(O)c1cc(F)c(-c2cccc3c2OCN(C(=O)c2c(Cl)cc(N4CC5CCC(C4)N5CC(F)F)cc2Cl)C3)cc1N1C2CCC1COC2` [Compound 7-13, 4-[3-[2,6-Dichloro-4-[8-(2,2-difluoroethyl)-3,8-diazabicyclo[3.2.1]octan-3-yl]benzoyl]-2,4-dihydro-1,3-benzoxazin-8-yl]-5-fluoro-2-(3-oxa-8-azabicyclo[3.2.1]octan-8-yl)benzoic acid] yielded an EC50 of 5.7 nM.
